Data reported in ChEMBL document CHEMBL1201862, “PubChem BioAssay data set” (2004).
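Grown in 96-well plates, cells were treated for 48 hours with each compound at five concentrations. Insufficient inhibition: endpoint recorded as highest concentration tested. GI50 marks 50% less growth.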 The source made the active and inactive calls. No stated cut-off is given here; in the data, active = GI50 up to about 1.1 µM and inactive = higher.

How the values were obtained:
Test in all cases: DTP human tumour cell line panel, 48 h
PC-3 = test system: PC-3
NCI-H522 = test system: NCI-H522
CAKI-1 = test system: CAKI-1
KM12 = test system: KM12
ACHN = test system: ACHN
NCI-H23 = test system: NCI-H23
MCF7 = test system: MCF7
MDA-MB-231 = test system: MDA-MB-231
K562 = test system: K562
DU-145 = test system: DU-145
SK-OV-3 = test system: SK-OV-3
LOX IMVI = test system: LOX IMVI
SK-MEL-28 = test system: SK-MEL-28
M14 = test system: M14
NCI-H226 = test system: NCI-H226
MDA-MB-435 = test system: MDA-MB-435
T47D = test system: T47D
OVCAR-3 = test system: OVCAR-3
HT-29 = test system: HT-29
SR = test system: SR
UACC-257 = test system: UACC-257
RPMI-8226 = test system: RPMI-8226
Malme-3M = test system: Malme-3M
TK-10 = test system: TK-10
SF-268 = test system: SF-268
786-0 = test system: 786-0
SK-MEL-5 = test system: SK-MEL-5
NCI-H460 = test system: NCI-H460
IGROV-1 = test system: IGROV-1
OVCAR-5 = test system: OVCAR-5
NCI/ADR-RES = test system: NCI/ADR-RES
UO-31 = test system: UO-31
MOLT-4 = test system: MOLT-4
BT-549 = test system: BT-549
HCC 2998 = test system: HCC 2998
OVCAR-4 = test system: OVCAR-4
SNB-19 = test system: SNB-19
COLO 205 = test system: COLO 205
SK-MEL-2 = test system: SK-MEL-2
SF-295 = test system: SF-295
OVCAR-8 = test system: OVCAR-8
A498 = test system: A498
EKVX = test system: EKVX
HCT-15 = test system: HCT-15
HOP-62 = test system: HOP-62
UACC-62 = test system: UACC-62
U-251 = test system: U-251
SW-620 = test system: SW-620
MDA-N = test system: MDA-N
SNB-75 = test system: SNB-75
SN12C = test system: SN12C
Hs-578T = test system: Hs-578T
A549 = test system: A549
HOP-92 = test system: HOP-92
SF-539 = test system: SF-539
HCT-116 = test system: HCT-116
CCRF-CEM = test system: CCRF-CEM
HL-60 = test system: HL-60
RXF 393 = test system: RXF 393

COc1ccc(N2C(=O)C3c4[nH]c5cccc(Cl)c5c4C4CCC(C(C)(C)C)CC4C3C2=O)cc1 (stereo not drawn)
GI50 (PC-3): > 100 µM (inactive) | GI50 (NCI-H522): > 100 µM (inactive) | GI50 (CAKI-1): > 100 µM (inactive) | GI50 (KM12): > 100 µM (inactive) | GI50 (ACHN): > 100 µM (inactive) | GI50 (NCI-H23): > 100 µM (inactive) | GI50 (MCF7): > 100 µM (inactive) | GI50 (MDA-MB-231): > 100 µM (inactive) | GI50 (K562): > 100 µM (inactive) | GI50 (DU-145): > 100 µM (inactive) | GI50 (SK-OV-3): 64.9 µM (inactive) | GI50 (LOX IMVI): > 100 µM (inactive) | GI50 (SK-MEL-28): > 100 µM (inactive) | GI50 (M14): > 100 µM (inactive) | GI50 (NCI-H226): > 100 µM (inactive) | GI50 (MDA-MB-435): > 100 µM (inactive) | GI50 (T47D): > 100 µM (inactive) | GI50 (OVCAR-3): > 100 µM (inactive) | GI50 (HT-29): > 100 µM (inactive) | GI50 (SR): 8.47 µM (inactive) | GI50 (UACC-257): > 100 µM (inactive) | GI50 (RPMI-8226): > 100 µM (inactive) | GI50 (Malme-3M): > 100 µM (inactive) | GI50 (TK-10): > 100 µM (inactive) | GI50 (SF-268): 50.6 µM (inactive) | GI50 (786-0): 31.6 µM (inactive) | GI50 (SK-MEL-5): > 100 µM (inactive) | GI50 (NCI-H460): > 100 µM (inactive) | GI50 (IGROV-1): > 100 µM (inactive) | GI50 (OVCAR-5): > 100 µM (inactive) | GI50 (NCI/ADR-RES): > 100 µM (inactive) | GI50 (UO-31): > 100 µM (inactive) | GI50 (MOLT-4): > 100 µM (inactive) | GI50 (BT-549): > 100 µM (inactive) | GI50 (HCC 2998): > 100 µM (inactive) | GI50 (OVCAR-4): > 100 µM (inactive) | GI50 (SNB-19): 41.5 µM (inactive) | GI50 (COLO 205): > 100 µM (inactive) | GI50 (SK-MEL-2): 94.6 µM (inactive) | GI50 (SF-295): 47.2 µM (inactive) | GI50 (OVCAR-8): 84.3 µM (inactive) | GI50 (A498): 74.1 µM (inactive) | GI50 (EKVX): > 100 µM (inactive) | GI50 (HCT-15): > 100 µM | GI50 (HOP-62): 16.3 µM (inactive) | GI50 (UACC-62): > 100 µM (inactive) | GI50 (U-251): 39.2 µM (inactive) | GI50 (SW-620): > 100 µM (inactive) | GI50 (MDA-N): > 100 µM (inactive) | GI50 (SNB-75): 19.1 µM (inactive) | GI50 (SN12C): > 100 µM (inactive) | GI50 (Hs-578T): 21.9 µM (inactive) | GI50 (A549): > 100 µM (inactive) | GI50 (HOP-92): 83.2 µM (inactive) | GI50 (SF-539): 64.7 µM (inactive) | GI50 (HCT-116): > 100 µM (inactive)

O=C(O)C(Cc1ccccc1)N1C(=O)c2ccccc2C1=O (stereo not drawn)
GI50 (PC-3): > 100 µM (inactive) | GI50 (CCRF-CEM): 4.01 µM (inactive) | GI50 (NCI-H522): > 100 µM (inactive) | GI50 (CAKI-1): > 100 µM (inactive) | GI50 (KM12): > 100 µM (inactive) | GI50 (ACHN): > 100 µM (inactive) | GI50 (NCI-H23): > 100 µM (inactive) | GI50 (MCF7): > 100 µM (inactive) | GI50 (MDA-MB-231): > 100 µM (inactive) | GI50 (K562): > 100 µM (inactive) | GI50 (DU-145): > 100 µM (inactive) | GI50 (SK-OV-3): > 100 µM (inactive) | GI50 (LOX IMVI): > 100 µM (inactive) | GI50 (SK-MEL-28): 14.4 µM (inactive) | GI50 (M14): > 100 µM (inactive) | GI50 (NCI-H226): > 100 µM (inactive) | GI50 (MDA-MB-435): > 100 µM (inactive) | GI50 (T47D): > 100 µM (inactive) | GI50 (OVCAR-3): > 100 µM (inactive) | GI50 (HT-29): > 100 µM (inactive) | GI50 (UACC-257): > 100 µM (inactive) | GI50 (RPMI-8226): > 100 µM (inactive) | GI50 (Malme-3M): > 100 µM (inactive) | GI50 (TK-10): > 100 µM (inactive) | GI50 (SF-268): > 100 µM (inactive) | GI50 (786-0): > 100 µM (inactive) | GI50 (SK-MEL-5): > 100 µM (inactive) | GI50 (NCI-H460): > 100 µM (inactive) | GI50 (IGROV-1): > 100 µM (inactive) | GI50 (OVCAR-5): > 100 µM (inactive) | GI50 (NCI/ADR-RES): > 100 µM (inactive) | GI50 (UO-31): > 100 µM (inactive) | GI50 (MOLT-4): > 100 µM (inactive) | GI50 (BT-549): > 100 µM (inactive) | GI50 (HCC 2998): > 100 µM (inactive) | GI50 (HL-60): 0.0472 µM (active) | GI50 (OVCAR-4): > 100 µM (inactive) | GI50 (SNB-19): > 100 µM (inactive) | GI50 (COLO 205): > 100 µM (inactive) | GI50 (SK-MEL-2): > 100 µM (inactive) | GI50 (SF-295): > 100 µM (inactive) | GI50 (OVCAR-8): > 100 µM (inactive) | GI50 (A498): > 100 µM (inactive) | GI50 (EKVX): 93.1 µM (inactive) | GI50 (HCT-15): > 100 µM | GI50 (HOP-62): > 100 µM (inactive) | GI50 (UACC-62): > 100 µM (inactive) | GI50 (U-251): > 100 µM (inactive) | GI50 (SW-620): 18.7 µM (inactive) | GI50 (MDA-N): > 100 µM (inactive) | GI50 (RXF 393): > 100 µM (inactive) | GI50 (SN12C): > 100 µM (inactive) | GI50 (Hs-578T): > 100 µM (inactive) | GI50 (A549): > 100 µM (inactive) | GI50 (HOP-92): 29.2 µM (inactive) | GI50 (SF-539): > 100 µM (inactive) | GI50 (HCT-116): > 100 µM (inactive)
